≈ marks a conversion by molar mass, not a printed value.
Legend:
[1] = Metabolic stability in mouse liver microsomes at 5 uM after 30 mins; assay type: ADME, Microsome; settings: read-out: Stability
[2] = test system: NCI-H460; test: Cytotoxicity against human H460 cells under hypoxic condition after 2 hrs by clonogenic assay; assay type: functional; settings: NCI-H460, 2 h
[3] = Toxicity against human MIAPaCa2-RFP cells xenografted mouse; assay type: organism-based
[4] = test system: HT-29; test: Ratio of IC50 for human HT29 cells under normoxic condition to hypoxic condition by clonogenic assay; assay type: functional
[5] = test system: NCI-H460; test: Cytotoxicity against human H460 cells under hypoxic condition after 2 hrs by Alamar blue staining assay; assay type: functional, cell-based; settings: NCI-H460, 2 h
[6] = test system: NCI-H460; test: Ratio of IC50 for human H460 cells under normoxic condition to hypoxic condition by Alamar blue staining assay; assay type: functional
[7] = Aqueous solubility at 100 mg at pH 7.4; assay type: physicochemical
[8] = test system: NCI-H460; test: Cytotoxicity against human H460 cells under normoxic condition after 2 hrs by Alamar blue staining assay; assay type: functional, cell-based; settings: NCI-H460, 2 h
[9] = test system: HT-29; test: Cytotoxicity against human HT29 cells under hypoxic condition after 2 hrs by clonogenic assay; assay type: functional; settings: HT-29, 2 h
[10] = test system: Mus musculus; test: Toxicity against human MIAPaCa2 cells xenografted mouse assessed as survival time at 6 mg/kg, ip administered once daily for 5 days a week for 15 days; assay type: organism-based, MIA PaCa-2; design: dose 6 mg/kg, route intraperitoneal; settings: in vivo
[11] = test system: NCI-H460; test: Ratio of IC50 for human H460 cells under normoxic condition to hypoxic condition by clonogenic assay; assay type: functional
[12] = test system: NCI-H460; test: Cytotoxicity against human H460 cells under normoxic condition after 2 hrs by clonogenic assay; assay type: functional; settings: NCI-H460, 2 h
[13] = test system: HT-29; test: Cytotoxicity against human HT29 cells under normoxic condition after 2 hrs by clonogenic assay; assay type: functional; settings: HT-29, 2 h
[14] = test system: MIA PaCa-2; test: Antitumor activity against human MIAPaCa2 cells xenografted mouse assessed as tumor growth inhibition at 30 mg/kg, ip administered once daily for 5 days a week for 15 days; assay type: functional; settings: MIA PaCa-2, ip, route intraperitoneal
[15] = test system: Mus musculus; test: Toxicity against human MIAPaCa2 cells xenografted mouse assessed as survival time at 30 mg/kg, ip administered daily once for 5 days a week for 15 days; assay type: organism-based, MIA PaCa-2; design: dose 30 mg/kg, route intraperitoneal; settings: in vivo
[16] = test system: MIA PaCa-2; test: Antitumor activity against human MIAPaCa2 cells xenografted mouse assessed as tumor growth inhibition at 200 mg/kg, ip administered weekly once for 3 weeks; assay type: functional; settings: MIA PaCa-2, ip, 504 h, route intraperitoneal
[17] = test system: Mus musculus; test: Toxicity against human MIAPaCa2 cells xenografted mouse assessed as survival time at 200 mg/kg, ip administered weekly once for 3 weeks; assay type: organism-based, MIA PaCa-2; design: dose 200 mg/kg, route intraperitoneal; settings: in vivo, 504 h

`O=[N+]([O-])c1ccc(COP(=O)(NCCBr)NCCBr)o1` gave a remaining at 0.5 h, 5 µM [1] of 79%, an IC90 [2] of 50 nM and an MTD [3] of 20 mg/kg. The “Ratio IC50” value [4] was 30, the IC50 [5] was 83 nM and the “Ratio IC50” value [6] was 170. For the same compound, the solubility [7] was 4300 µg/mL (≈ 9.88 mM), the IC50 [8] was 14000 nM and the IC90 [9] was 60 nM. For the same compound, the Survival [10] was 27 days, the “Ratio IC50” value [11] was 40 and the IC90 [12] was 2000 nM. For the same compound, the IC90 [13] was 2000 nM.
With `Cn1c(COP(=O)(NCCCl)NCCCl)cnc1[N+](=O)[O-]` the remaining at 0.5 h, 5 µM [1] was 90%, the IC50 [5] was 210 nM and the “Ratio IC50” value [6] was 420. For the same compound, the IC50 [8] was 88000 nM.
For `Cn1c([N+](=O)[O-])cnc1COP(=O)(NCCBr)NCCBr`, the remaining at 0.5 h, 5 µM [1] was 92%, the IC50 [5] was 5700 nM and the “Ratio IC50” value [6] was 8. The IC50 [8] was 46000 nM.
For `CN(CCCl)P(=O)(OCc1cnc([N+](=O)[O-])n1C)N(C)CCCl`, the remaining at 0.5 h, 5 µM [1] was 15%, the IC50 [5] was 110 nM and the “Ratio IC50” value [6] was 130. For the same compound, the IC50 [8] was 14000 nM.
In the case of `Cn1c(COP(=O)(N(CCCl)CCCl)N(CCCl)CCCl)cnc1[N+](=O)[O-]`, the remaining at 0.5 h, 5 µM [1] is reported as 0%, the IC50 [5] is reported as 120 nM and the “Ratio IC50” value [6] is reported as 230. For the same compound, the IC50 [8] was 27000 nM.
`Cn1c(COP(=O)(NCCBr)NCCBr)cnc1[N+](=O)[O-]` [EVOFOSFAMIDE] gave a remaining at 0.5 h, 5 µM [1] of 92%, an IC90 [2] of 100 nM and an MTD [3] of 100 mg/kg. For the same compound, the “Ratio IC50” value [4] was 200, the IC50 [5] was 19 nM and the “Ratio IC50” value [6] was 270. The solubility [7] was 5900 µg/mL (≈ 13.1 mM), the inhibition in vivo at 30 mg/kg [14] was 41% and the IC50 [8] was 5100 nM. For the same compound, the IC90 [9] was 200 nM, the Survival [15] was 28 days and the “Ratio IC50” value [11] was 300. The IC90 [12] was 30000 nM and the IC90 [13] was 40000 nM.
`Nc1ccn([C@@H]2O[C@H](CO)[C@@H](O)C2(F)F)c(=O)n1` [GEMCITABINE] gave an inhibition in vivo at 200 mg/kg [16] of 82% and a Survival [17] of 42 days.
For `Nc1n[n+]([O-])c2ccccc2[n+]1[O-]` [TIRAPAZAMINE], the IC50 [5] was 11000 nM, the “Ratio IC50” value [6] was >9 and the IC50 [8] was > 100000 nM.

— ChEMBL document CHEMBL1144808 (J Med Chem, 2008)
